The values that follow come from the supplement of paper PMC12076712.

The target of one test is STK33 (UniProt Q9BYT3). As to the kind of experiment: pIC50, competition of probe 3 labelling in live cells. The settings on record: cell material: Jurkat cells.
The target of a further test is T1, IRAK4 (UniProt Q9NWZ3).
T1 sequence (whole entry): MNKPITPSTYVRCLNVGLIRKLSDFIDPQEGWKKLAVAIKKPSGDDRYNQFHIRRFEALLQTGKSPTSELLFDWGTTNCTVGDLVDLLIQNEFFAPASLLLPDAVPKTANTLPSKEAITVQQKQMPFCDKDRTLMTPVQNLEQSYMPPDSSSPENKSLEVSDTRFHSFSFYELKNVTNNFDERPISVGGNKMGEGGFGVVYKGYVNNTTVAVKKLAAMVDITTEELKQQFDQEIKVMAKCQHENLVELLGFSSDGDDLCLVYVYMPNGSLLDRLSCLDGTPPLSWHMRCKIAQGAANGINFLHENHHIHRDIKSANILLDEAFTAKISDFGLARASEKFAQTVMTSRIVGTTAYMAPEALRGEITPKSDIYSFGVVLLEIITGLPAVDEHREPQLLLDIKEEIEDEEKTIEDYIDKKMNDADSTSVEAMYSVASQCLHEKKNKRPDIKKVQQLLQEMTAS
Described as above. The settings on record: cell material: Jurkat cells.

A further test deals with LIMK2 (UniProt P53671). The description is as above. The following applies: cell material: Jurkat cells.
Chain of LIMK2 (P53671 whole entry, looked up): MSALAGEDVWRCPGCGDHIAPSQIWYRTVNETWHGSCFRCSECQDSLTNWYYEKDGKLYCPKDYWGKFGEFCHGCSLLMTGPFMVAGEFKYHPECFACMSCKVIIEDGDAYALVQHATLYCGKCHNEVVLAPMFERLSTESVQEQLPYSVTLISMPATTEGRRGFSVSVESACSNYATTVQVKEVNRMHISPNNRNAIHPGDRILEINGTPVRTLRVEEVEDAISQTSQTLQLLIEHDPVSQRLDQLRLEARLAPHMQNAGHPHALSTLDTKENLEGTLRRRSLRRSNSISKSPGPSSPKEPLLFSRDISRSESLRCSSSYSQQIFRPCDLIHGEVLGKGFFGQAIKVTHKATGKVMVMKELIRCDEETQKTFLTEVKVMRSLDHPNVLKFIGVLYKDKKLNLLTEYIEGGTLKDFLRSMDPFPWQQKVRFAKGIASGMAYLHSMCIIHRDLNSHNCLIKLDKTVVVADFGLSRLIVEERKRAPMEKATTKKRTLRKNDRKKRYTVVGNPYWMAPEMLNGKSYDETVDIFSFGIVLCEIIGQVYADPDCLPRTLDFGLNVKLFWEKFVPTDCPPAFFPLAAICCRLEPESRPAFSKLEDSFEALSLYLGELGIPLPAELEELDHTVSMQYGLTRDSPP
For a further test, the target named is MGLL (UniProt Q99685). The description is as above. The settings on record: cell material: Jurkat cells.
Chain of MGLL (Q99685 whole entry): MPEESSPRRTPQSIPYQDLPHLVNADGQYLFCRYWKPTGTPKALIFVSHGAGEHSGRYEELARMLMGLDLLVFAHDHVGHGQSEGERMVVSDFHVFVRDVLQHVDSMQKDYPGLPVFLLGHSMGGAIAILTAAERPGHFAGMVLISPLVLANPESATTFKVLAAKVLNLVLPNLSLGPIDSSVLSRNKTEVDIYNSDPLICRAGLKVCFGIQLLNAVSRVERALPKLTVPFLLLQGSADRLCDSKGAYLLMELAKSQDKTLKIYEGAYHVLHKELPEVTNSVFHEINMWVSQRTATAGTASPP
In the next test the target is RPS6KA4 (UniProt O75676). The description is as above. The settings on record: cell material: Jurkat cells.
Chain of RPS6KA4 (O75676 whole entry, looked up): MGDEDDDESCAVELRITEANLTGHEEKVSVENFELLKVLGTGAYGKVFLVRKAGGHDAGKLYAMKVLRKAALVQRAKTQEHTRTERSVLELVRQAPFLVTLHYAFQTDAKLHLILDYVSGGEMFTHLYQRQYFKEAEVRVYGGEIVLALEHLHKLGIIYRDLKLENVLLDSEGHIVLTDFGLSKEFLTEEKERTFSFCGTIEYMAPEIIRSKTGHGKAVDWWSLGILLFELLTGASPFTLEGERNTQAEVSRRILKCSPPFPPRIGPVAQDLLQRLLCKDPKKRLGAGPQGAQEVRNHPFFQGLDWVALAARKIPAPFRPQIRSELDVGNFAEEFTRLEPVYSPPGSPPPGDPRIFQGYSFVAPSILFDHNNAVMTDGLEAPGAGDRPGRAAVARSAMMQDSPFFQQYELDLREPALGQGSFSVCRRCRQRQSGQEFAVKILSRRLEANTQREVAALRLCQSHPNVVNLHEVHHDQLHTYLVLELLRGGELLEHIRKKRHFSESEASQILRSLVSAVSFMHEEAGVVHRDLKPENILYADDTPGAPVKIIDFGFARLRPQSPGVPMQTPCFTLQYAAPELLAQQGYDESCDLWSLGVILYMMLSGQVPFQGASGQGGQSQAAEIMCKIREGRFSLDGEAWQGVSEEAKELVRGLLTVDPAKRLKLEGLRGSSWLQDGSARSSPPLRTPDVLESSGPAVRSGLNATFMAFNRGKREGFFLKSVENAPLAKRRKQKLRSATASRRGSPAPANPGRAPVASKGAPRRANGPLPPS
For a further test, the target named is PAK2 (UniProt Q13177). The description is as above. The following applies: cell material: Jurkat cells.
The next test addresses GSTM1 (UniProt P09488). The test is described as above. The following applies: cell material: Jurkat cells.
A further test addresses UniProt Q9NWV4. Described as above. The following applies: cell material: Jurkat cells.
The target of the next test is UniProt Q14289. The test is described as above. The settings on record: cell material: Jurkat cells.
The target in the next test is T2, CDKL5 (UniProt O76039).
T2 sequence (whole entry): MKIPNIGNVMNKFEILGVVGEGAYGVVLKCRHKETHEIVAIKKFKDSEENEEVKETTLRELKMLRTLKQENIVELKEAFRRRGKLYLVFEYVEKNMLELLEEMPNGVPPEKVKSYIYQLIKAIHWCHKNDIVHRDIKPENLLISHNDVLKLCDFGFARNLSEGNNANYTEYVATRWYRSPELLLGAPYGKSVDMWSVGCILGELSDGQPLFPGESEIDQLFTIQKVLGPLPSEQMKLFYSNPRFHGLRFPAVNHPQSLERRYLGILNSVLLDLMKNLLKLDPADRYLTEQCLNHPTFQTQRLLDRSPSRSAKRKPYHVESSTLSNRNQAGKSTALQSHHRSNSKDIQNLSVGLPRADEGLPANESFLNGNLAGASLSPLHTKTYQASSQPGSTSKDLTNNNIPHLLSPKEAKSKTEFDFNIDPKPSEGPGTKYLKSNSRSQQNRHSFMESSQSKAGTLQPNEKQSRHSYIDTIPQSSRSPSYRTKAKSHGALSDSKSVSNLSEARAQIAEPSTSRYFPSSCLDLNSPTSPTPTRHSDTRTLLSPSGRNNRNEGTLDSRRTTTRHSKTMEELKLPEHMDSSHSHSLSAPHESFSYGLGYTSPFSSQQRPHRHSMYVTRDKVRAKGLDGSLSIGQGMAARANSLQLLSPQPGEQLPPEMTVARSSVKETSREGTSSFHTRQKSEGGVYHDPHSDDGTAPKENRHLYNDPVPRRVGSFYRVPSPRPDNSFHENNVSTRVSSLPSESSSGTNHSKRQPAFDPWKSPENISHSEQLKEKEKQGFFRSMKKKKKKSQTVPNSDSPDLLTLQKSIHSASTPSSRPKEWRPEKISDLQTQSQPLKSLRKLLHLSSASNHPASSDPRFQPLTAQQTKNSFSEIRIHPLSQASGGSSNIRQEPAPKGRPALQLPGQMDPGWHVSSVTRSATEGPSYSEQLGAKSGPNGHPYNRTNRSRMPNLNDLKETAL
The test is described as above. The following applies: cell material: Jurkat cells.

Another test addresses UniProt O96017. Described as above. The following applies: cell material: Jurkat cells.
A further test has as its target UniProt P57059. As to the kind of experiment: pIC50, kinobeads binding competition. The following applies: cell material: Lysate mix. The gist of the method:
(§1)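 Jurkat cells were exposed alive to nine compound concentrations (top 30 μM, 1:4 steps) or vehicle for 60 min at 37 °C and then lysed. In a second format, nine concentrations (top 30 μM, 1:5 steps) were incubated for 60 min at 4 °C with Jurkat lysate or with a 1:1:1:1 lysate mix of HEK293, K-562, HepG2 and placenta. Proteins captured on Kinobeads were digested and quantified by TMT10 LC-MS/MS. pIC50 values were derived from logistic dose-response fits (R drc package) of fold changes relative to vehicle, in biological duplicates.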

A further test concerns the target T3, UniProt P52564.
T3 sequence (whole entry): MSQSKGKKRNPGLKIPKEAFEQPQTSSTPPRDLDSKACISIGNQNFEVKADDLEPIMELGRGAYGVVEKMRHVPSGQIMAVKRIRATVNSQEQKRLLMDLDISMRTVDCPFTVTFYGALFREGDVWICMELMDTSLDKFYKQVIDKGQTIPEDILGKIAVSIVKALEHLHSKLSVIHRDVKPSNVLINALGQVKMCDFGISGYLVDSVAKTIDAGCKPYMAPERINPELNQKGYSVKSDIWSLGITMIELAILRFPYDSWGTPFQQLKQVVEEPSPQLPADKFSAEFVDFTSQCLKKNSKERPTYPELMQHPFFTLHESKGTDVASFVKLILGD
As to the kind of experiment: pIC50, kinobeads binding competition. The essentials:
as §1

A further test has as its target CSF1R (UniProt P07333). As to the kind of experiment: pIC50, kinobeads binding competition. The settings on record: cell material: Lysate mix. The essentials:
as §1

The target in another test is CDK10 (UniProt Q15131). As to the kind of experiment: pIC50, kinobeads binding competition. The gist of the method: as §1
Chain of CDK10 (Q15131 whole entry): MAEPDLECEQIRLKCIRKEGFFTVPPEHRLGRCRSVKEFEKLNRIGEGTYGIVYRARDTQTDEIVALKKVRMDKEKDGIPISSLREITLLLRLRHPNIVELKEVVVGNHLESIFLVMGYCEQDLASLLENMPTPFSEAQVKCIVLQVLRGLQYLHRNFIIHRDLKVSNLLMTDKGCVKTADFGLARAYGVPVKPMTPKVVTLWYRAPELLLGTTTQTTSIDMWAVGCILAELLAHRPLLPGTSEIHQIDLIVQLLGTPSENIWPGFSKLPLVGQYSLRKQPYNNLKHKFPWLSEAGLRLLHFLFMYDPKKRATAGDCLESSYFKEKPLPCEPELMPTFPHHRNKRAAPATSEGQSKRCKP

Each structure is given as a SMILES string.

Chain of UniProt P57059 (P57059 whole entry): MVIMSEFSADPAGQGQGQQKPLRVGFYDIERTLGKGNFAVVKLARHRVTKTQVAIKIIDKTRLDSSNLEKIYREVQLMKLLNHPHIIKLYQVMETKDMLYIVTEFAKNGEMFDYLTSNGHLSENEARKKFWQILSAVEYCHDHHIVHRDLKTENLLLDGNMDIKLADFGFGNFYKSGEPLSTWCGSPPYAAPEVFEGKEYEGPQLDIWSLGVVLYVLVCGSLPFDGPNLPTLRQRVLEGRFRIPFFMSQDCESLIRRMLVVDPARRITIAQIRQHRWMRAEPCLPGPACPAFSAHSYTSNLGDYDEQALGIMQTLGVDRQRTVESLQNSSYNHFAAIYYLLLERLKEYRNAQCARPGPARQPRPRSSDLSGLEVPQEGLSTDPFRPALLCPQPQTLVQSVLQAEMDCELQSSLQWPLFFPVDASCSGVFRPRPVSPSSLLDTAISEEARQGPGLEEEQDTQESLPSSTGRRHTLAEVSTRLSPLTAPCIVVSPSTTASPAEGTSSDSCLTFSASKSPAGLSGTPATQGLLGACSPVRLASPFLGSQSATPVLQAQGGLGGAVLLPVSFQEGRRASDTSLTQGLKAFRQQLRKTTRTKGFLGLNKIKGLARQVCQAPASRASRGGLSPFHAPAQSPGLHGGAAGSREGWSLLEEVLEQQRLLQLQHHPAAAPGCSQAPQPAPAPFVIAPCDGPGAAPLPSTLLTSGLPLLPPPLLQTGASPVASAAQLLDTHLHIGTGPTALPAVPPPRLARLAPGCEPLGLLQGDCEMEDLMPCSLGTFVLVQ
Chain of CSF1R (P07333 whole entry): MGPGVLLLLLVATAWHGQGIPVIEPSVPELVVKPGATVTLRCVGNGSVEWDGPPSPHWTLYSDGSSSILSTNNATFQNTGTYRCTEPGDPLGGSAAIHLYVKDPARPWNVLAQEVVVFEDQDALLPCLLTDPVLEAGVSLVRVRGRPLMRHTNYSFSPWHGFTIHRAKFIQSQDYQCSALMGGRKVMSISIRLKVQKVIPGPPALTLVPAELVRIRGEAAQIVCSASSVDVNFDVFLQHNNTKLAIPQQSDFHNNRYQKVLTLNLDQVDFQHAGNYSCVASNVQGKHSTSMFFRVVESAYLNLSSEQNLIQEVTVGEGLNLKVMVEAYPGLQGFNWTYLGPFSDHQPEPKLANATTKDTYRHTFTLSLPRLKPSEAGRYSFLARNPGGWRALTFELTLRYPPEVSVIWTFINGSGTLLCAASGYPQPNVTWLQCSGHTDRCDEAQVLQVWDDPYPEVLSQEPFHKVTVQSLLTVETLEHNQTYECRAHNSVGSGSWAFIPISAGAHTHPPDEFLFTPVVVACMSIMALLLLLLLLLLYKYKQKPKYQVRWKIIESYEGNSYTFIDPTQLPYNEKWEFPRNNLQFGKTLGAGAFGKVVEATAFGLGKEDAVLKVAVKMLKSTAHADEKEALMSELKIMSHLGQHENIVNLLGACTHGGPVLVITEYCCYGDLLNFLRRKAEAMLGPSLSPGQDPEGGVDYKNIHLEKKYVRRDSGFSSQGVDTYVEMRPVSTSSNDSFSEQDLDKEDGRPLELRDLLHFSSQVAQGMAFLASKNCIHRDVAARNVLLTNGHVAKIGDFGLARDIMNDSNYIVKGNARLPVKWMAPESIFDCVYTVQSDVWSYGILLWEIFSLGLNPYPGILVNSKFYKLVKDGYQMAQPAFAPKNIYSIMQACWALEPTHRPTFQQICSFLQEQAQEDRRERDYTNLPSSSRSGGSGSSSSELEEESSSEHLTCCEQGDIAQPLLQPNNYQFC
Chain of GSTM1 (P09488 whole entry): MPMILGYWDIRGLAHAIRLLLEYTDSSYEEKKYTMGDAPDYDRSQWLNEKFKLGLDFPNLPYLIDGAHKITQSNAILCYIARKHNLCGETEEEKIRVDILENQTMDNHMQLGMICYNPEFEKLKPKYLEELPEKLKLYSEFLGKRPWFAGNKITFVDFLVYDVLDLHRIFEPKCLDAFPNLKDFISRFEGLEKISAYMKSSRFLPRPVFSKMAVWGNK
Chain of STK33 (Q9BYT3 whole entry, looked up): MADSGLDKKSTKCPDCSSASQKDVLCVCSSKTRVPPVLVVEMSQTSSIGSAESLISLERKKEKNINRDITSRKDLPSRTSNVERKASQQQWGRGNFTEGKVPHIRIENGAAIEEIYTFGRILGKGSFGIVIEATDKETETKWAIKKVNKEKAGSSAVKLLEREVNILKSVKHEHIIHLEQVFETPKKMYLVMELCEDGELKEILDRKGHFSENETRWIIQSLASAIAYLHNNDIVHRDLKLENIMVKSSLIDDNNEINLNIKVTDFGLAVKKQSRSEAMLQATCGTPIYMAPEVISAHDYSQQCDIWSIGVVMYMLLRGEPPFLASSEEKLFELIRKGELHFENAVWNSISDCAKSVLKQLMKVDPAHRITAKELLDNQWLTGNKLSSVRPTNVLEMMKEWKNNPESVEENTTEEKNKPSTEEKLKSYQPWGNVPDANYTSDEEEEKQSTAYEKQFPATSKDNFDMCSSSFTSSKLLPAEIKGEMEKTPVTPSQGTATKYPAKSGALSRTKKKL
Chain of UniProt Q9NWV4 (Q9NWV4 whole entry): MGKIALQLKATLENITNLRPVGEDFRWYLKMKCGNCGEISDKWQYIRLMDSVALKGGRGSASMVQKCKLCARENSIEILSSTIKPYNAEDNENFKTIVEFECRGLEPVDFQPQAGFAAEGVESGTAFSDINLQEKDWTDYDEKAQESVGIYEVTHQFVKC

By pIC50 is commonly meant the negative decadic logarithm of the IC50, by convention in mol/L. Lower therefore signals a large IC50. `CCc1cnn2c(NCc3ccc[n+]([O-])c3)cc(N3CCCC[C@H]3CCO)nc12` [dinaciclib]: the pIC50 on STK33, at IRAK4, at LIMK2, on MGLL, at RPS6KA4 and at PAK2 was less than 4.52 in each case. Moreover, the pIC50 at GSTM1 was less than 4.52; at UniProt Q9NWV4, less than 4.52; on UniProt Q14289, less than 4.52; at CDKL5, 6.12; on UniProt O96017, less than 4.52.

Regarding `O=C(NCCNC(=O)c1cc(Nc2cc(C3CC3)[nH]n2)nc(N2CCN(Cc3ccc(S(=O)(=O)F)cc3)CC2)n1)OC1CC/C=C/CCC1` (configuration not stated), the pIC50 on UniProt P57059 is less than 4.52; at UniProt P52564 (cell material: Jurkat cells), less than 4.52; at UniProt P52564 (cell material: Jurkat lysate), less than 4.52; on UniProt P52564 (cell material: Lysate mix), less than 4.52; on CSF1R it was less than 4.52; at CDK10 (cell material: Jurkat cells) it was 6.06. Also, the pIC50 at CDK10 (cell material: Lysate mix) was less than 4.52.

On to `CCNC(=O)c1cc(Nc2cc(C3CC3)[nH]n2)nc(N2CCN(Cc3ccc(S(=O)(=O)F)cc3)CC2)n1`, for which the pIC50 at UniProt P57059 was less than 4.52; at UniProt P52564 (cell material: Lysate mix), 5.2; on CSF1R, less than 4.52; at CDK10 (cell material: Lysate mix) it was 5.29.

With `CC#CC(=O)Nc1ccc2ncnc(Nc3cccc(Br)c3)c2c1` [EKI-785], the pIC50 at STK33, at IRAK4, at LIMK2, on MGLL, on RPS6KA4 and at PAK2 was less than 4.52 in each case. For the same molecule, the pIC50 on GSTM1 was less than 4.52; on UniProt Q9NWV4 it was less than 4.52; at UniProt Q14289, 4.62; on CDKL5, less than 4.52; at UniProt O96017, less than 4.52.

On to `Cc1cc(Nc2cc(C(=O)NCCNC(=O)OC3CC/C=C/CCC3)nc(N3CCN(Cc4ccc(S(=O)(=O)F)cc4)CC3)n2)n[nH]1` (configuration not stated), for which the pIC50 at UniProt P52564 (cell material: Lysate mix), at CSF1R and at CDK10 (cell material: Lysate mix) was less than 4.52 in each case.

In the case of `CCNC(=O)c1cc(Nc2cc(C)[nH]n2)nc(N2CCN(Cc3ccc(S(=O)(=O)F)cc3)CC2)n1`, the pIC50 on UniProt P57059 is less than 4.52; on UniProt P52564 (cell material: Lysate mix), 4.62; at CSF1R it was less than 4.52.

As for `C#CCNC(=O)c1cc(Nc2cc(C3CC3)[nH]n2)nc(N2CCN(Cc3ccc(S(=O)(=O)F)cc3)CC2)n1`, the negative logarithm of the IC50 (pIC50) at UniProt P57059 is less than 4.52; on UniProt P52564 (cell material: Jurkat cells), 5.61; at UniProt P52564 (cell material: Jurkat lysate), less than 4.52; on UniProt P52564 (cell material: Lysate mix), 5.21; at CSF1R, less than 4.52; on CDK10 (cell material: Jurkat cells), 6.16. The pIC50 amounted to 6.04 at CDK10 (cell material: Jurkat lysate) and 5.82 on CDK10 (cell material: Lysate mix).
